Measured values reported in US20050043262A1, “Novel specific inhibitor of the cyclin kinase inhibitor p21Waf1/Cip1 and methods of using the inhibitor” (priority 2000, published 2005).

Tests used:
[1] = tested on: MAPK; test: MAPK level (immunoblot) in ODN-transfected breast cancer cells; type: cell-based, human; settings: ODN-transfected cells compared with controls
Experimental: Due to the high levels of p21 in these two human breast cancer cell lines, it was reasoned that, in a manner similar to their effect in VSM cells (Weiss, R. H., Joo, A., and Randour, C., J. Biol. Chem., 275: 10285-10290, 2000), antisense ODNs to p21 may result in increased apoptosis and/or cell cycle arrest. […] T47D and MCF7 cells were lipofected with either antisense p21 ODN (200 or 400 nM), the control ODN at the same concentrations, or lipofectin alone (no DNA). MCF7 and T47D cells were grown to confluence, serum starved for 24 hours, and lipofected with antisense p21 or control ODN or lipofectin only. cont refers to nontransfected cells. The cells were subsequently serum stimulated for another 24 hours. A and B, the cells were lysed, and equal protein quantities (20 μg) were electrophoresed and immunoblotted with p21 antibody. The same lysate was immunoblotted with MAPK antibody as a loading control. Density of p21 and MAPK bands was determined and reported as a ratio. C, the cells were transfected as described in A, fixed, subjected to immunohistochemistry with p21 antibody as described in “Immunohistochemistry” in Example VI, and examined under visible light at X400. Control cells (FIG. 30, cont) were not transfected. […] There was no effect of lipofectin alone when compared with no transfection (control).

[2] = tested on: α-actin; test: alpha-actin protein level by Western blot in A10 VSM cells; type: cell-based, rat
Experimental: Western blots: Cells were grown to confluence in 6 cm culture dishes and serum deprived. After transfection and or treatment with appropriate agonist, the cells were washed with phosphate-buffered saline and lysed in lysis buffer and the supernatant was Western blotted as described (Weiss et al., 1998 Am. J. Physiol., 274, p. C1521-C1529).
At the times indicated after the overnight incubation (in hours), the medium was changed to quiescence medium and the cells were stimulated with PMA for 4 hours to show maximal p21^Waf1/Cip1 expression (FIG. 6a). The lysates were immunoblotted with (a) p21^Waf1/Cip1 or p27^Kip1 antibody or (b) α-actin antibody. This is likely due to sequence similarity between the two genes, as p21^Waf1/Cip1 shares 43% sequence identity with p27^Kip1 in the cdk/cyclin binding site (residues 27-88), located in the conserved N terminus (Nomura et al., 1997 Gene, 191, p. 211-218; Toyoshima and Hunter, 1994 Cell, 78, p. 67-74).
Using a random sequence phosphorothioate oligodeoxynucleotide (SEQ. ID NO.:3) as a control, the effect of the antisense oligodeoxynucleotide to p21 (400 nM) on p21 and α-actin protein expression in A10 VSM cells, was examined. The lysates, normalized for protein content, were Western blotted with either p21 or α-actin antibody.

[3] = tested on: Rb; test: Rb hyperphosphorylation by Western blot in A431 cells; type: cell-based, human; settings: 400 nM, 10% serum 6 and 24 hours
Experimental: Upon activation by cyclin/cdk complexes, the Rb protein in turn becomes phosphorylated, causing it to release the transcription factors known as E2F, leading to early oncogene expression and ultimately to cell growth. An effect of p21^Waf1/Cip1 on cdk/Rb interaction would be evident by a change in phosphorylation state of the Rb protein: this property can be assessed by examining small changes in gel mobility of this protein. A431 cells were transfected with 400 nM antisense p21^Waf1/Cip1 oligodeoxynucleotide (SEQ. ID NO.:1) or with lipofectin only (no DNA). After overnight incubation in serum-free medium, the cells were stimulated with complete media for 6 or 24 hours, lysed, and the lysates were Western blotted with Rb antibody.

[4] = tested on: fibronectin; test: Fibronectin production and secretion (immunoprecipitation/immunoblot); type: cell-based, rat; settings: VSM cells, 400 nM, TGF-β 0.1 to 10 ng/ml
Experimental: Immunoprecipitations: VSM cells were grown to confluence. After incubation under appropriate conditions, the cells were washed with ice-cold phosphate-buffered saline and immediately lysed in lysis buffer (20 mM Tris [pH7.5], 150 mM NaCl, 1 mM EDTA, 1 mM EGTA, 1% Triton X-100, 2.5 mM sodium pyrophosphate, 1 mM β-glycerolphosphate, 1 mM Na3VO4, 1 μg/ml Leupeptin, 1 mM PMSF) at 4° C. The cells were scraped off with a rubber spatula and the insoluble material removed by centrifuging at 10,000× g for 10 min at 4° C. Protein concentration was determined by A595, and lysates containing equal amounts of protein were incubated with […] anti-fibronectin antibody at 4° C. overnight. Protein A-Sepharose beads were added and the resulting mixture was incubated for an additional 2 hours at 4° C. The beads were centrifuged in a microfuge for 20 sec, and the pellet was washed 3 times with cold lysis buffer. The supernatant was decanted, gel loading buffer was added to the precipitate, and the solution was boiled for 5 min, and centrifuged. The supernatant was electrophoresed on a 7.5% SDS-polyacrylamide gel with equal volumes of sample per lane. The proteins were electrophoretically transferred to nitrocellulose and probed with fibronectin antibody.
The p21 influences on matrix protein secretion in VSM cells were determined. […]

Substance | MAPK levels [1] | α-actin protein level ([2]; 400 nM) | levels of α-actin ([2]; identical conditions to p21 blot) | serum-induced Rb hyperphosphorylation versus no-DNA control [3] | TGF-β-mediated fibronectin production and secretion [4]
5′-ATC-CCC-AGC-CGG-TTC-TGA-CAT-3′ (antisense ATCCCCAGCCGGTTCTGACAT; listed as DNA, chemistry not fully specified) [antisense p21 ODN] | lack of modulation |  |  |  | 
5′-GACATCACCAGGATCGGACAT-3′ |  | no effect | not altered | no difference | decreases
